Values of other authors, collected in patent US12504433B2, “Methods, systems and kits for in-pen assays” (BRUKER CELLULAR ANALYSIS, INC., priority 2020, dated 2025).

How the values were obtained:
Fc of hIgG = details: read-out: Affinity for IgG

Q: For “CPD 1: Protein A-AF594, Pierce Recombinant Protein A (ThermoFisher Cat. # 77674)”, which “Affinity for IgG” value (IgG; stated in words) is on record?
A: nanomolar

Q: With “DCAWHLGELVWCT [CPD 4, Asp Cys Ala Trp His Leu Gly Glu Leu Val Trp Cys Thr]” as the substance, how does the Kd (IgG; Fc, read-out: Affinity for IgG) read?
A: 100 nM

Q: For “5′-rGp-rGp-rAp-rGp-rGp-fUp-fCp-fCp-rGp-rAp-rAp-rAp-rGp-rGp-rAp-fCp-fUp-fCp-fCp-3′ [CPD 5]”, which Kd (Fc of hIgG) is on record?
A: 75 nM
